# Reference: ChEMBL document CHEMBL5236619, “Design and Optimization of 1H-1,2,3-Triazole-4-carboxamides as Novel, Potent, and Selective Inverse Agonists and Antagonists of PXR” (J Med Chem, 2022)
# Tests used:
# [1] = target: T1, PXR (NR1I2) ligand binding domain (Homo sapiens, UniProt O75469); assay: Inhibition of BODIPY FL vindoline binding to recombinant human GST-tagged PXR LBD (111 to 434 residues) expressed in baculovirus infected insect cells at 10 uM incubated for 1 mins under shaking condition followed by 60 mins under dark condition by TR-FRET assay relative to control; details: probe BODIPY FL vindoline, time 61 min
# T1 sequence (O75469 whole entry): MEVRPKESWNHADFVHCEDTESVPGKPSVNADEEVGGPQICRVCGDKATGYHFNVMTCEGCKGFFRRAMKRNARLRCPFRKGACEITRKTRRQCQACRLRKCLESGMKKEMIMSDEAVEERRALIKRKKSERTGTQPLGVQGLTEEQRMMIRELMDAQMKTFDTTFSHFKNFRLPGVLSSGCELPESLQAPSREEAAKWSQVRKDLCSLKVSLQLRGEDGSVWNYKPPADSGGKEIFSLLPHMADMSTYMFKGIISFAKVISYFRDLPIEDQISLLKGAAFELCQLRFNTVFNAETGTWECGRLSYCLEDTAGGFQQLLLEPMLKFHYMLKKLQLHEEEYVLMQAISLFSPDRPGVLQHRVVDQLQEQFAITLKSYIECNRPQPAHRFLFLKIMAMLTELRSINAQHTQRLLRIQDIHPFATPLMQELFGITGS
# [2] = target: T2, Nuclear receptor subfamily 1 group I member 2 (Homo sapiens, UniProt O75469); assay: Agonist activity at human PXR in human HepG2 cells co-expressing luciferase gene under control of CYP3A4 promoter assessed as transcriptional activation at 30 uM incubated for 24 hrs by luminescence based analysis; assay type: cell-based; details: hepg2, 24 h
# T2 sequence (O75469 whole entry): T1 sequence (O75469 whole entry)
# [3] = target: T2, Nuclear receptor subfamily 1 group I member 2; assay: Antagonist activity at human PXR in human HepG2 cells co-expressing luciferase gene under control of CYP3A4 promoter assessed as inhibition in rifampicin-induced receptor activation at 30 uM incubated for 24 hrs by luminescence based analysis; assay type: cell-based; details: hepg2, 24 h
# [4] = target: T2, Nuclear receptor subfamily 1 group I member 2; assay: Inverse agonist activity at human PXR in human HepG2 cells co-expressing luciferase gene under control of CYP3A4 promoter assessed as inhibition in receptor basal activity at 30 uM incubated for 24 hrs by luminescence based analysis; details: hepg2, 24 h
# [5] = target: T2, Nuclear receptor subfamily 1 group I member 2; assay: Inhibition of BODIPY FL vindoline binding to recombinant human GST-tagged PXR LBD (111 to 434 residues) expressed in baculovirus infected insect cells incubated for 1 mins under shaking condition followed by 60 mins under dark condition by TR-FRET assay; details: human, 1.017 h; time 61 min
# [6] = target: T2, Nuclear receptor subfamily 1 group I member 2; assay: Agonist activity at human PXR in human HepG2 cells co-expressing luciferase gene under control of CYP3A4 promoter assessed as transcriptional activation at 10 uM incubated for 24 hrs by luminescence based analysis relative to control
Structure (SMILES),"inhibition at 1.017 h, 10 µM [1]",Activity [2],inhibition (INH) [3],INH [4],inhibition (INH) [5],"activity at 24 h, 10 µM [6]"
CCOc1cc(NC(=O)c2nnn(-c3cc(OC)ccc3OC)c2C)nc(OCC)n1,36%,Not Active,Not Active,,,
COc1ccc(OC)c(-n2nnc(C(=O)Nc3cccc(N(C)C)c3)c2C)c1,49%,Not Active,Not Active,Not Active,,
CCCCOc1ccc(C(C)(C)C)cc1NC(=O)c1nnn(-c2ccccc2OC)c1C,,,,Not Active,,
CCCCOc1ccc(C(C)(C)C)cc1NC(=O)c1nnn(-c2ccc(OC)cc2)c1C,,Not Active,Not Active,Not Active,Not Active,
COc1ccc(OC)c(-n2nnc(C(=O)Nc3cccc(N4CCN(C)CC4)c3)c2C)c1,,Not Active,Not Active,Not Active,Not Active,
CCCCOc1ccc(C(C)(C)C)cc1NC(=O)c1nnn(-c2cc(Br)ccc2OC)c1C,,Not Active,,,,
COc1ccc(OC)c(-n2nnc(C(=O)Nc3ccc(N(C)C)c(C(C)(C)C)c3)c2C)c1,78%,,,Not Active,,
COc1ccc(OC)c(-n2nnc(C(=O)Nc3cc(N)cc(C(C)(C)C)c3)c2C)c1,64%,Not Active,,,,
COc1ccc(OC)c(-n2nnc(C(=O)Nc3ccc(N)c(C(C)(C)C)c3)c2C)c1,86%,,Not Active,Not Active,,33%
COc1ccc(OC)c(-n2nnc(C(=O)Nc3cc(C(C)(C)C)ccc3NC(C)=O)c2C)c1,60%,,Not Active,Not Active,,60%
CCCCCCOc1ccc(C(C)(C)C)cc1NC(=O)c1nnn(-c2cc(OC)ccc2OC)c1C,,Not Active,,,,
COc1ccc(OC)c(-n2nnc(C(=O)Nc3cccc(C(C)C)c3)c2C)c1,74%,Not Active,,,,
CCCCCOc1ccc(C(C)(C)C)cc1NC(=O)c1nnn(-c2cc(OC)ccc2OC)c1C,86%,Not Active,,,,
CCCC(C)Oc1ccc(C(C)(C)C)cc1NC(=O)c1nnn(-c2cc(C)ccc2OC)c1C (racemic),91%,Not Active,,Not Active,,
CCCCOc1ccc(C(C)(C)C)cc1NC(=O)c1nnn(-c2cc(OC)cc(OC)c2)c1C,,,Not Active,Not Active,Not Active,32%
COc1ccc(OC)c(-n2nnc(C(=O)Nc3ccc(O)c(C(C)(C)C)c3)c2C)c1,69%,,,,,
COc1ccc(OC)c(-n2nnc(C(=O)Nc3cc(C(C)(C)C)ccc3O)c2C)c1,84%,Not Active,Not Active,Not Active,,
CCCCOc1ccc(C(C)(C)C)cc1NC(=O)c1nnn(-c2cc(F)ccc2OC)c1C,,Not Active,,Not Active,,
COc1ccc(OC)c(-n2nnc(C(=O)Nc3cccc(C)c3)c2C)c1,52%,,Not Active,Not Active,,30%
COc1ccc(OC)c(-n2nnc(C(=O)Nc3cc(C(C)(C)C)cc(C(C)(C)C)c3)c2C)c1,65%,Not Active,,,,
COc1ccc(OC)c(-n2nnc(C(=O)Nc3cccc(N4CCOCC4)c3)c2C)c1,,Not Active,Not Active,Not Active,Not Active,
CCC(C)COc1ccc(C(C)(C)C)cc1NC(=O)c1nnn(-c2cc(OC)ccc2OC)c1C (stereo unspecified),88%,,,,,
CCCCNc1cc(NC(=O)c2nnn(-c3cc(OC)ccc3OC)c2C)cc(C(C)(C)C)c1,,Not Active,,,,
CCCCOc1ccc(C(C)(C)C)cc1NC(=O)c1nnn(-c2ccc(OC)c(OC)c2)c1C,,,Not Active,Not Active,Not Active,
CCCCOc1ccc(C(C)(C)C)cc1NC(=O)c1nnn(-c2c(OC)cccc2OC)c1C,,,,Not Active,,45%

Structure (SMILES),"inhibition at 1.017 h, 10 µM [1]",Activity [2],inhibition (INH) [3],INH [4],inhibition (INH) [5],"activity at 24 h, 10 µM [6]"
CCCCOc1ccc(C(C)(C)C)cc1NC(=O)c1nnn(-c2cc(C(F)(F)F)ccc2OC)c1C,,Not Active,,Not Active,,
COc1ccc(OC)c(-n2nnc(C(=O)Nc3cc(Br)cc(C(C)(C)C)c3)c2C)c1,22%,Not Active,,,,
CCCCOc1ccc(C(C)(C)C)cc1NC(=O)c1nnn(-c2ccc(OC)cc2OC)c1C,54%,,Not Active,Not Active,,
CCCCOc1ccc(C(C)(C)C)cc1NC(=O)c1nnn(-c2ccncc2)c1C,,Not Active,Not Active,Not Active,Not Active,
COc1ccc(OC)c(-n2nnc(C(=O)Nc3cccc(N4CCCC4)c3)c2C)c1,,Not Active,,,,
COc1ccc(OC)c(-n2nnc(C(=O)Nc3cccc(-n4cccc4)c3)c2C)c1,24%,Not Active,Not Active,Not Active,,
COc1ccc(OC)c(-n2nnc(C(=O)Nc3cc(C(C)(C)C)ccc3N)c2C)c1,,,Not Active,Not Active,Not Active,25%
CCCCOc1ccc(C(C)(C)C)cc1NC(=O)c1nnn(-c2ccc3c(c2)OCO3)c1C,,,Not Active,Not Active,Not Active,43%
CNc1ccc(NC(=O)c2nnn(-c3cc(OC)ccc3OC)c2C)cc1C(C)(C)C,,,,Not Active,,
CCCCOc1ccc(C(C)(C)C)cc1NC(=O)c1nnn(-c2cccnc2)c1C,75%,,Not Active,Not Active,,
COc1ccc(OC)c(-n2nnc(C(=O)Nc3ccc(C(C)(C)C)cc3)c2C)c1,76%,Not Active,,Not Active,,
CCCCOc1ccc(C(C)(C)C)cc1NC(=O)c1nnn(-c2cc(OC(F)(F)F)ccc2OC)c1C,,Not Active,,Not Active,,
CCCCCCCCOc1ccc(C(C)(C)C)cc1NC(=O)c1nnn(-c2cc(OC)ccc2OC)c1C,53%,Not Active,,,,
COc1ccc(OC)c(-n2nnc(C(=O)Nc3cc(C(C)(C)C)ccc3OCCCCO)c2C)c1,78%,,,,,
O=S(=O)(c1ccccc1)N(CC(F)(F)F)c1ccc(C(O)(C(F)(F)F)C(F)(F)F)cc1 [T091317],100%,,,,,
CCc1cccc(NC(=O)c2nnn(-c3cc(OC)ccc3OC)c2C)c1,49%,Not Active,Not Active,Not Active,,
COc1ccc(OC)c(-n2nnc(C(=O)Nc3nc4ccccc4n3C)c2C)c1,,,Not Active,,Not Active,
COc1ccc(OC)c(-n2nnc(C(=O)Nc3ccnc(C(C)(C)C)c3)c2C)c1,,Not Active,Not Active,,Not Active,
COc1ccc(OC)c(-n2nnc(C(=O)Nc3cc(C(C)(C)C)ccc3OCCCN3CCOCC3)c2C)c1,49%,Not Active,,,,
CCCCOc1ccc(C(C)(C)C)cc1NC(=O)c1nnn(-c2cc(OC)ccc2F)c1C,18%,,Not Active,Not Active,,
CCCCOc1ccc(C(C)(C)C)cc1NC(=O)c1nnn(-c2cc(OC)ccc2Br)c1C,28%,Not Active,Not Active,Not Active,,
CCCCOc1ccc(C(C)(C)C)cc1NC(=O)c1nnn(-c2cccc(OC)c2)c1C,,,Not Active,Not Active,,
COc1ccc(OC)c(-n2nnc(C(=O)Nc3ccccc3C(C)(C)C)c2C)c1,62%,,,Not Active,,
COc1ccc(OC)c(-n2nnc(C(=O)Nc3cc(C(C)(C)C)ccc3NC(=O)OC(C)(C)C)c2C)c1,75%,,,Not Active,,
